Measured values from patent US20230220021A1, “CYCLIC PEPTIDE INHIBITORS OF PSD-95 AND USES THEREOF” (University of Copenhagen, priority 2020, published 2023).
Where a SMILES comes first, the peptide text is derived from it. [ ]: non-standard residue; d: D form.

What was measured:
[1] = target: T1, PSD-95-PDZ2 (Homo sapiens, UniProt P78352); test: Fluorescence polarization (FP) competition assay against cyclic nNOS TAMRA probe; assay type: binding; settings: for Ki: FP competition, cyclic nNOS TAMRA probe, mean of triplicates, N.B. = not binding, read-out: Ki; for Relative Ki (Ki mut/Ki WT): FP inhibition constant normalized to WT value
T1 construct: 7xHis (N); made in house; host or cells: Escherichia coli B21 pLys (for the mutants, 'as previously described')
Method: Fluorescence polarization (FP). FP assays were performed in a 384-well plate format. Fluorescence polarization was measured using a Safire 2 plate reader. The instrument Z-factor was optimized for each assay. The G-factor was calibrated to an initial milli polarization value of 20. The wavelength for the cyclic nNOS β-hairpin TAMRA probe was: ex: 530 nm and em: 580 nm. Every measurement was performed in NaPI 50 mM, 50 mM NaCl and 1% BSA at pH 7.2, 25° C. […] The curves were done in triplicates. Then, the polarization was fitted into a one-site binding model using Prism software 8.0 (GraphPad), from which the Kd can be measured. […] The mili polarization (mP) values were plotted as a function of peptide concentration and fitted to a sigmoidal dose-response curve using Prism software 8.0 (GraphPad). The Ki values were calculated according to Nikolovska-Coleska Z. et al.^40-41

[2] = target: T2, PSD-95-PDZ2 (Homo sapiens, UniProt P78352, V178C); test: SPOT peptide array screening with TAMRA labelled PSD-95-PDZ2; assay type: binding; settings: SPOT array, TAMRA labelled PSD-95-PDZ2-V178C, normalized to WT
T2 construct: screened with the TAMRA labelled PSD-95-PDZ2-V178C domain; 7xHis (N); made in house
Method: SPOT peptide array synthesis. To generate the cyclic nNOSβ-hairpin arrays, we used the Intavis MultiPep spotter (Intavis Bioanalytical instruments). The membranes employed in this assay were SynthoPlan APEG CE (standard amino-modified acid stable sellulose membrane with a PEG-spacer), 10×15 cm with a loading of 400 nmol cm^−2. Solutions of 0.3 M Fmoc-AA-OH and 0.3 M Oxyma Pure were prepared in N-methyl-2-pyrrolidone (NMP). The activator solution consisted of 0.3 M DIC and 0.3 M of 2,4,6-trimethylpyridine (Collidine) in NMP. The capping solution consisted of a solution of 1 M acetic anhydride and 0.05 M of 4-dimethylaminopyridine (DMAP) in NMP. The deprotection solution consisted of 20% piperidine in NMP. AA couplings were performed 1 h,4 times. Deprotection of the Fmoc groups was performed 15min,2 times. Membrane washing between couplings or deprotections was performed with NMP and ethanol. Elongation of peptides in cellulose membrane was started by coupling first the Fmoc-PEG(9)-OH (Iris Biotech) and the subsequent mixture of Fmoc-Gly-OH (25%) and Boc-Gly-OH (75%) to lower the total loading of the membrane. Afterwards, the resin was capped with the capping solution and extensively washed and soaked in bromophenol blue (BPB) as a quality control to reveal the SPOTS with a functional amino group. Then, we coupled the quasi-orthogonal group Fmoc-Glu-PP, and carried out the rest of the synthesis until peptide completion. The cellulose bound linear peptides were finally treated with a solution of 95% DCM, 3% TIPS and 2% TFA 3 times, 20 min. to remove the quasi-orthogonal group. Afterwards, the membrane was washed 5 times with DCM and neutralized with 5% DIPEA in DCM. The membrane was then washed 5 more times with DCM, 5 times with NMP and cyclized with 0.3M PyAOP and 0.3M of DIPEA in DMF for 3 h or overnight. Finally, the membrane was dried with DCM and the side-chain protecting groups were cleaved with the standard deprotection cocktail (95% TFA, 2.5% H2O and 2.5% TIPS) or with reagent K [TFA 82.5%, phenol 5%, H2O 5%, thioanisole 5% and 1,2-ethanedithiol (EDT) 2.5%] for 3 h.
SPOT membrane screening. Membranes were incubated with PBS pH 7.2+0.5% bovine serum albumin (BSA) for 1 h. After the incubation period, the membrane was dried and scanned with an Amershan Typhoon scanner, at 400V, Cy3 wavelength (532 nm). A TIF file of the screening and a file with the blank values were generated using the Image Quant software. Afterwards, a solution of 50 nM of TAMRA labelled PSD-95-PDZ2 domain was prepared in PBS pH 7.2+0.5% BSA and was added to the membrane. The membrane was left incubating in a Polymax 1040 rocking table for 1 h protected from the light. Passed the incubation time, the excess of labelled protein was removed by washing the membrane 3 times with PBS+0.5% BSA. Finally, the membrane fluorescence values were measured with the Amershan Typhoon scanner at 400V, Cy3 wavelength (532 nm). Using the Image Quant software, the TIF image of the screening and a file with the fluorescence values of the peptides with the TAMRA labelled PSD-95-PDZ2 were generated. The blank was then subtracted from the fluorescence values of the peptides screened against the TAMRA labelled PSD-95-PDZ2.
A deep mutational scan was performed on the WT scaffold, exchanging each AA to the remaining 19 L-AAs. Each array contained three copies of the individual peptides as technical replicates. Additionally, three controls were included in the design: the cyclic nNOS β-hairpin WT control (positive control), a linear nNOS peptide (cyclization control) and a cyclic nNOS β-hairpin with a F111V substitution (negative control previously tested in FP competition assays). For array screening, a mutation in PSD-95-PDZ2 residue V178 (PSD-95-PDZ2-V178C) was introduced, which was subsequently labelled with TAMRA maleimide. […]

Ki [1] [nM]	Relative Ki (Ki mut/Ki WT) [1]	Normalized SPOT fluorescence (Mut/WT) [2]	SMILES
	0.83	1.30	CC[C@H](C)[C@@H]1NC(=O)[C@H]([C@@H](C)O)NC(=O)[C@H](CCCCN)NC(=O)[C@@H]2CCCN2C(=O)[C@H](C)NC(=O)CNC(=O)[C@H](CC(=O)O)NC(=O)CNC(=O)[C@H]([C@@H](C)O)NC(=O)[C@H](Cc2ccccc2)NC(=O)[C@H]([C@@H](C)O)NC(=O)[C@H]([C@@H](C)O)NC(=O)[C@H](CCC(=O)O)NC(=O)[C@H](CC(C)C)NC(=O)[C@H](Cc2c[nH]cn2)NC(=O)[C@H]([C@@H](C)O)NC(=O)[C@H](CCC(N)=O)NC(=O)CNC(=O)[C@H]2CCCN2C(=O)[C@H](CCC(N)=O)NC(=O)[C@H]([C@@H](C)O)NC(=O)[C@H](C(C)C)NC(=O)[C@H](CCCNC(=N)N)NC1=O [compound 66] (cyclo(THLETTFTGDGAPKTIRVTQ[dP]GQ))
17000	11.33	0.09	CC[C@H](C)[C@@H]1NC(=O)[C@H](C)NC(=O)[C@H](CCCCN)NC(=O)[C@@H]2CCCN2C(=O)[C@H]([C@@H](C)O)NC(=O)CNC(=O)[C@H](CC(=O)O)NC(=O)CNC(=O)[C@H]([C@@H](C)O)NC(=O)[C@H](Cc2ccccc2)NC(=O)[C@H]([C@@H](C)O)NC(=O)[C@H]([C@@H](C)O)NC(=O)[C@H](CCC(=O)O)NC(=O)[C@H](CC(C)C)NC(=O)[C@H](Cc2c[nH]cn2)NC(=O)[C@H]([C@@H](C)O)NC(=O)[C@H](CCC(N)=O)NC(=O)CNC(=O)[C@H]2CCCN2C(=O)[C@H](CCC(N)=O)NC(=O)[C@H]([C@@H](C)O)NC(=O)[C@H](C(C)C)NC(=O)[C@H](CCCNC(=N)N)NC1=O [compound 69] (cyclo(THLETTFTGDGTPKAIRVTQ[dP]GQ))
1760	1.17	0.06	CC(C)C[C@@H]1NC(=O)[C@H](Cc2c[nH]cn2)NC(=O)[C@H]([C@@H](C)O)NC(=O)[C@H](CCC(N)=O)NC(=O)CNC(=O)[C@H]2CCCN2C(=O)[C@H](CCC(N)=O)NC(=O)[C@H]([C@@H](C)O)NC(=O)[C@H](C(C)C)NC(=O)[C@H](CCCNC(=N)N)NC(=O)[C@H](C)NC(=O)[C@H]([C@@H](C)O)NC(=O)[C@H](CCCCN)NC(=O)[C@@H]2CCCN2C(=O)[C@H]([C@@H](C)O)NC(=O)CNC(=O)[C@H](CC(=O)O)NC(=O)CNC(=O)[C@H]([C@@H](C)O)NC(=O)[C@H](Cc2ccccc2)NC(=O)[C@H]([C@@H](C)O)NC(=O)[C@H]([C@@H](C)O)NC(=O)[C@H](CCC(=O)O)NC1=O [compound 70] (cyclo(THLETTFTGDGTPKTARVTQ[dP]GQ))
	1.49	0.09	CC[C@H](C)[C@@H]1NC(=O)[C@H]([C@@H](C)O)NC(=O)[C@H](CCCCN)NC(=O)[C@@H]2CCCN2C(=O)[C@H]([C@@H](C)O)NC(=O)CNC(=O)[C@H](CC(=O)O)NC(=O)CNC(=O)[C@H]([C@@H](C)O)NC(=O)[C@H](Cc2ccccc2)NC(=O)[C@H]([C@@H](C)O)NC(=O)[C@H]([C@@H](C)O)NC(=O)[C@H](CCC(=O)O)NC(=O)[C@H](CC(C)C)NC(=O)[C@H](Cc2c[nH]cn2)NC(=O)[C@H]([C@@H](C)O)NC(=O)[C@H](CCC(N)=O)NC(=O)CNC(=O)[C@H]2CCCN2C(=O)[C@H](CCC(N)=O)NC(=O)[C@H]([C@@H](C)O)NC(=O)[C@H](C)NC(=O)[C@H](CCCNC(=N)N)NC1=O [compound 72] (cyclo(THLETTFTGDGTPKTIRATQ[dP]GQ))
	1.03	0.61	CC[C@H](C)[C@@H]1NC(=O)[C@H]([C@@H](C)O)NC(=O)[C@H](CCCCN)NC(=O)[C@@H]2CCCN2C(=O)[C@H]([C@@H](C)O)NC(=O)CNC(=O)[C@H](CC(=O)O)NC(=O)CNC(=O)[C@H]([C@@H](C)O)NC(=O)[C@H](Cc2ccccc2)NC(=O)[C@H]([C@@H](C)O)NC(=O)[C@H]([C@@H](C)O)NC(=O)[C@H](CCC(=O)O)NC(=O)[C@H](CC(C)C)NC(=O)[C@H](Cc2c[nH]cn2)NC(=O)[C@H]([C@@H](C)O)NC(=O)[C@H](CCC(N)=O)NC(=O)CNC(=O)[C@H]2CCCN2C(=O)[C@H](CCC(N)=O)NC(=O)[C@H](C)NC(=O)[C@H](C(C)C)NC(=O)[C@H](CCCNC(=N)N)NC1=O [compound 73] (cyclo(THLETTFTGDGTPKTIRVAQ[dP]GQ))

Second part, the molecule before the results:

SMILES	Ki [1] [nM]	Relative Ki (Ki mut/Ki WT) [1]	Normalized SPOT fluorescence (Mut/WT) [2]
CC[C@H](C)[C@@H]1NC(=O)[C@H]([C@@H](C)O)NC(=O)[C@H](CCCCN)NC(=O)[C@@H]2CCCN2C(=O)[C@H]([C@@H](C)O)NC(=O)[C@H](C)NC(=O)[C@H](CC(=O)O)NC(=O)CNC(=O)[C@H]([C@@H](C)O)NC(=O)[C@H](Cc2ccccc2)NC(=O)[C@H]([C@@H](C)O)NC(=O)[C@H]([C@@H](C)O)NC(=O)[C@H](CCC(=O)O)NC(=O)[C@H](CC(C)C)NC(=O)[C@H](Cc2c[nH]cn2)NC(=O)[C@H]([C@@H](C)O)NC(=O)[C@H](CCC(N)=O)NC(=O)CNC(=O)[C@H]2CCCN2C(=O)[C@H](CCC(N)=O)NC(=O)[C@H]([C@@H](C)O)NC(=O)[C@H](C(C)C)NC(=O)[C@H](CCCNC(=N)N)NC1=O [compound 65] (cyclo(THLETTFTGDATPKTIRVTQ[dP]GQ))	410	0.27	1.34
CC[C@H](C)[C@@H]1NC(=O)[C@H]([C@@H](C)O)NC(=O)[C@H](CCCCN)NC(=O)[C@H](C)NC(=O)[C@H]([C@@H](C)O)NC(=O)CNC(=O)[C@H](CC(=O)O)NC(=O)CNC(=O)[C@H]([C@@H](C)O)NC(=O)[C@H](Cc2ccccc2)NC(=O)[C@H]([C@@H](C)O)NC(=O)[C@H]([C@@H](C)O)NC(=O)[C@H](CCC(=O)O)NC(=O)[C@H](CC(C)C)NC(=O)[C@H](Cc2c[nH]cn2)NC(=O)[C@H]([C@@H](C)O)NC(=O)[C@H](CCC(N)=O)NC(=O)CNC(=O)[C@H]2CCCN2C(=O)[C@H](CCC(N)=O)NC(=O)[C@H]([C@@H](C)O)NC(=O)[C@H](C(C)C)NC(=O)[C@H](CCCNC(=N)N)NC1=O [compound 67] (cyclo(THLETTFTGDGTAKTIRVTQ[dP]GQ))		1.07	0.93
CC[C@H](C)[C@@H]1NC(=O)[C@H]([C@@H](C)O)NC(=O)[C@H](CCCCN)NC(=O)[C@@H]2CCCN2C(=O)[C@H]([C@@H](C)O)NC(=O)CNC(=O)[C@H](CC(=O)O)NC(=O)CNC(=O)[C@H]([C@@H](C)O)NC(=O)[C@H](Cc2ccccc2)NC(=O)[C@H]([C@@H](C)O)NC(=O)[C@H]([C@@H](C)O)NC(=O)[C@H](CCC(=O)O)NC(=O)[C@H](CC(C)C)NC(=O)[C@H](Cc2c[nH]cn2)NC(=O)[C@H]([C@@H](C)O)NC(=O)[C@H](CCC(N)=O)NC(=O)CNC(=O)[C@H]2CCCN2C(=O)[C@H](CCC(N)=O)NC(=O)[C@H]([C@@H](C)O)NC(=O)[C@H](C(C)C)NC(=O)[C@H](C)NC1=O [compound 71] (cyclo(THLETTFTGDGTPKTIAVTQ[dP]GQ))		1.65	0.15
